The text below walks through data of patent publication US20230114728A1 (Venatorx Pharmaceuticals, Inc., priority 2019, published 2023).

Values after ≈ are worked out from the molar mass of the structure shown.

What all share (assay): Broth microdilution MIC in iron-depleted CAMHB (IDM)
Common to all, as to assay type: cell-based
In general terms: Broth dilution looks for growth in wells or tubes with falling amounts of substance.

The subject of assay [1] is P. aeruginosa CDC-0110. The settings on record: Pseudomonas aeruginosa, CDC0110, read-out: Minimum Inhibitory Concentration, P. aeruginosa CDC-0110. On the procedure:
(§1) To determine the ability of test compounds to inhibit the growth bacterial strains under conditions of iron-depletion, classic cell based broth microdilution minimum inhibitory concentration (MIC) assays were employed. MIC assays are performed according to CLSI methods except where otherwise noted (CLSI, 2018 and CLSI, 2019). The reference type strain E. coli ATCC 25922 was used to determine the ability of the PBP inhibitors to inhibit the growth of Enterobacteriaceae. Wild-type P. aeruginosa ATCC 27853, A. baumannii ATCC 17978 and A. baumannii ATCC 19606, along with the hyper-permeable P. aeruginosa ATCC 35151, an engineered efflux pump-compromised strain of P. aeruginosa (ΔmexAB-oprM), and an engineered efflux-pump compromised strain of A. baumannii IL123 (ABΔ3-ARAEcPore) were used to determine the ability of PBP inhibitors to penetrate the outer membrane of P. aeruginosa and A. baumannii and assess antibacterial activity against these important gram-negative organisms.
(§2) Briefly, cryo-preserved bacterial cultures of challenge strains are streaked for isolation on appropriate agar medium, in this case cation-adjusted Mueller Hinton agar. Following incubation to allow growth of the colonies, plates are sealed with parafilm and stored refrigerated for up to two weeks. For preparation of assay inoculum and to ensure low variability, at least 5 colonies are picked from the agar plates with an inoculating loop and aseptically transferred to a culture tube containing 3 mL of iron-depleted cation-adjusted Mueller Hinton broth (IDM)—see below for IDM preparation. The broth culture is grown for 3-5 hours at 37° C. with shaking at 200 rpm. Meanwhile, 2-fold serial dilutions of test compounds are conducted in a 96-well plate with a final volume of 75 μL per well at 2-fold the final desired concentration. After the dilution plates are set up the growing cultures are then diluted in a cuvette containing IDM and the optical density is measured at 600 nm. The inoculum is diluted such that 75 μL of this culture in IDM results in a starting bacterial concentration of 2-8×10^5 CFU/mL when added to the dilution plates. The plates are incubated for 16-20 hours for Enterobacteriaceae and Pseudomonas and 20-24 hours for Acinetobacter at 37° C. The MIC values are read visually as the lowest concentration well with no bacterial growth.
(§3) Method for Iron-Depleted Cation-Adjusted Mueller Hinton Broth (IDM) Preparation:
(§4) • Prepare cation-adjusted Mueller Hinton broth as per the manufacturer's recommendations and autoclave. • Add 100 g/L Chelex 100 resin, cover with foil and incubate with stirring for 2 hours • Remove Chelex 100 resin by filtration with 0.45 μm filter flask • Add the following back to the medium: • CaCl2 dihydrate: 82.5 mg/L • MgCl2 hexahydrate: 94.1 mg/L • ZnSO4: 10 μM • Adjust pH of medium to 7.3 with 5 N HCl • Sterilize using a 0.22 µm filter flask

Assay [2] relates to A. baumannii ATCC 19606. The settings on record: Acinetobacter baumannii, ATCC19606, read-out: Minimum Inhibitory Concentration, ATCC 19606. On the procedure:
(§5) Example IV: In Vitro Antibacterial Assays in Iron-Depleted Cation-Adjusted Mueller-Hinton Broth
as §1, §2, §3, §4

Assay [3] deals with P. aeruginosa CDC-0054 producing VIM-4, OXA-50, and PAO. The settings on record: Pseudomonas aeruginosa, read-out: Minimum Inhibitory Concentration, P. aeruginosa CDC-0054. On the procedure:
as §5, §1, §2, §3, §4

For assay [4], the system named is A. baumannii CDC-0083 producing NDM-1, PER-7, OXA-23, and OXA-69. The conditions noted are these: Acinetobacter baumannii, read-out: Minimum Inhibitory Concentration, CDC-0083. On the procedure: as §5, §1, §2, §3, §4
Assay [5] deals with P. aeruginosa CDC-0090 producing KPC-5, OXA-50, and PAO. The settings on record: Pseudomonas aeruginosa, read-out: Minimum Inhibitory Concentration, P. aeruginosa CDC-0090. On the procedure: as §5, §1, §2, §3, §4
Assay [6] has as its system P. aeruginosa CDC-0095 producing OXA-50, and PAO. The settings on record: Pseudomonas aeruginosa, read-out: Minimum Inhibitory Concentration, P. aeruginosa CDC-0095. On the procedure:
as §5, §1, §2, §3, §4

Assay [7] relates to A. baumannii ATCC 17978. The settings on record: Acinetobacter baumannii, ATCC17978, read-out: Minimum Inhibitory Concentration, ATCC 17978. On the procedure: as §5, §1, §2, §3, §4
Assay [8] relates to P. aeruginosa ATCC 35151. The settings on record: Pseudomonas aeruginosa, ATCC35151; iron-depleted MHB (IDM); hyper-permeable strain; read-out: Minimum Inhibitory Concentration, P. aeruginosa ATCC 35151. On the procedure:
as §5, §1, §2, §3, §4

The test system of assay [9] is P. aeruginosa (ΔmexAB-oprM). The settings on record: Pseudomonas aeruginosa, read-out: Minimum Inhibitory Concentration, P. aeruginosa ΔmexAB-OprM. On the procedure:
as §5, §1, §2, §3, §4

In assay [10] the test system is A. baumannii CDC-0036 OXA-65, and OXA-24. The settings on record: Acinetobacter baumannii, read-out: Minimum Inhibitory Concentration, CDC-0036. On the procedure: as §5, §1, §2, §3, §4
The test system of assay [11] is P. aeruginosa ATCC 27853. The settings on record: Pseudomonas aeruginosa, ATCC27853, read-out: Minimum Inhibitory Concentration, P. aeruginosa ATCC 27853. On the procedure:
as §5, §1, §2, §3, §4

For assay [12], the system named is A. baumannii CDC-0033 producing NDM-1, and OXA-94. The conditions noted are these: Acinetobacter baumannii, read-out: Minimum Inhibitory Concentration, CDC-0033. On the procedure:
as §5, §1, §2, §3, §4

For assay [13], the system named is A. baumannii CDC-0045 producing TEM-1D, OXA-23, and OXA-69. The settings on record: Acinetobacter baumannii, read-out: Minimum Inhibitory Concentration, CDC-0045.

With `NCCN1CCN(C(=O)N[C@@H](C(=O)N[C@H]2Cc3ccc(F)c(C(=O)O)c3OB2O)c2c(F)cc(O)c(O)c2Cl)C(=O)C1=O` (single isomer, unassigned) [Example 26], the MIC in [1] was 0.5 to 1 µg/mL (≈ 0.799 to 1.6 µM); in assay [2], 0.5 to 1 µg/mL (≈ 0.799 to 1.6 µM); in [3], 0.5 to 1 µg/mL (≈ 0.799 to 1.6 µM); in [4], 0.25 µg/mL (≈ 0.4 µM); in assay [5], 0.25 µg/mL (≈ 0.4 µM); in [6] it was 32 to 64 µg/mL (≈ 51.1 to 102 µM). Also, the MIC is 0.25 µg/mL (≈ 0.4 µM) in assay [7]; 0.25 µg/mL (≈ 0.4 µM) in [8]; 0.25 µg/mL (≈ 0.4 µM) in assay [9]; 8 to 16 µg/mL (≈ 12.8 to 25.6 µM) in [10]; 0.5 to 1 µg/mL (≈ 0.799 to 1.6 µM) in assay [11]; 2 to 4 µg/mL (≈ 3.2 to 6.39 µM) in assay [12]. Further, the MIC in assay [13] lay in the range of 0.5 to 1 µg/mL (≈ 0.799 to 1.6 µM).

Regarding `NCCCN1CCN(C(=O)N[C@@H](C(=O)N[C@H]2Cc3ccc(F)c(C(=O)O)c3OB2O)c2c(F)cc(O)c(O)c2Cl)C(=O)C1=O` (single isomer, unassigned) [Example 27], the MIC in assay [1] is 2 to 4 µg/mL (≈ 3.13 to 6.25 µM); in assay [2], 0.25 µg/mL (≈ 0.391 µM); in assay [3], 0.25 µg/mL (≈ 0.391 µM); in [4] it was 0.25 µg/mL (≈ 0.391 µM); in assay [5], 0.25 µg/mL (≈ 0.391 µM); in [6], 8 to 16 µg/mL (≈ 12.5 to 25 µM). The MIC in assay [7] was 0.25 µg/mL (≈ 0.391 µM); in [8], 0.25 µg/mL (≈ 0.391 µM); in [9] it was 0.25 µg/mL (≈ 0.391 µM); in assay [10], 2 to 4 µg/mL (≈ 3.13 to 6.25 µM); in [11], 0.5 to 1 µg/mL (≈ 0.782 to 1.56 µM); in assay [12], 0.5 to 1 µg/mL (≈ 0.782 to 1.56 µM). Further, in assay [13], the MIC fell in the range of 0.5 to 1 µg/mL (≈ 0.782 to 1.56 µM).

In the case of `O=C(O)c1ccc(C(NC(=O)N2CCN(CCNC(=O)c3ccc(O)c(O)c3Cl)C(=O)C2=O)C(=O)N[C@H]2Cc3ccc(F)c(C(=O)O)c3OB2O)cc1F` (stereo partly drawn) [Example 11, (3R)-3-(2-(4-carboxy-3-fluorophenyl)-2-(4-(2-(2-chloro-3,4-dihydroxybenzamido)ethyl)-2,3-dioxopiperazine-1-carboxamido)acetamido)-7-fluoro-2-hydroxy-3,4-dihydro-2H-benzo[e][1,2]oxaborinine-8-carboxylic acid], the MIC was above 128 µg/mL in assay [2], 0.25 µg/mL (≈ 0.323 µM) in assay [8], 0.5 to 1 µg/mL (≈ 0.646 to 1.29 µM) in [9] and 2 to 4 µg/mL (≈ 2.58 to 5.17 µM) in [11].

In the case of `CS(=O)(=O)N1CCN(C(=O)NC(C(=O)N[C@H]2Cc3ccc(F)c(C(=O)O)c3OB2O)c2ccc(O)c(O)c2Cl)C1=O` (stereo partly drawn) [Example 23, (3R)-3-(2-(2-chloro-3,4-dihydroxyphenyl)-2-(3-(methylsulfonyl)-2-oxoimidazolidine-1-carboxamido)acetamido)-7-fluoro-2-hydroxy-3,4-dihydro-2H-benzo[e][1,2]oxaborinine-8-carboxylic acid], the MIC in assay [1] was 2 to 4 µg/mL (≈ 3.25 to 6.51 µM); in assay [2], 0.25 µg/mL (≈ 0.407 µM); in assay [3] it was 0.5 to 1 µg/mL (≈ 0.813 to 1.63 µM); in assay [4], 0.5 to 1 µg/mL (≈ 0.813 to 1.63 µM); in assay [5], 0.5 to 1 µg/mL (≈ 0.813 to 1.63 µM); in assay [6], 8 to 16 µg/mL (≈ 13 to 26 µM). The MIC is 0.25 µg/mL (≈ 0.407 µM) in assay [7]; 0.25 µg/mL (≈ 0.407 µM) in assay [8]; 0.25 µg/mL (≈ 0.407 µM) in assay [9]; 8 to 16 µg/mL (≈ 13 to 26 µM) in assay [10]; 0.5 to 1 µg/mL (≈ 0.813 to 1.63 µM) in [11]; 8 to 16 µg/mL (≈ 13 to 26 µM) in assay [12]. The MIC in assay [13] fell in the range of 0.5 to 1 µg/mL (≈ 0.813 to 1.63 µM).

Take `NC(C(=O)N[C@H]1Cc2ccc(F)c(C(=O)O)c2OB1O)c1c(F)cc(O)c(O)c1Cl` (stereo partly drawn) [Example 25, (3R)-3-(2-amino-2-(2-chloro-6-fluoro-3,4-dihydroxyphenyl)acetamido)-7-fluoro-2-hydroxy-3,4-dihydro-2H-benzo[e][1,2]oxaborinine-8-carboxylic acid]: the MIC in [1], in assay [2], in assay [3], in [4], in [5] and in assay [6] was 32 to 64 µg/mL (≈ 72.3 to 145 µM) throughout. The MIC was in the range of 32 to 64 µg/mL (≈ 72.3 to 145 µM) in assay [7]; 8 to 16 µg/mL (≈ 18.1 to 36.2 µM) in assay [8]; 32 to 64 µg/mL (≈ 72.3 to 145 µM) in assay [9]; 32 to 64 µg/mL (≈ 72.3 to 145 µM) in assay [10]; 32 to 64 µg/mL (≈ 72.3 to 145 µM) in assay [11]; 32 to 64 µg/mL (≈ 72.3 to 145 µM) in assay [12]. The MIC in assay [13] lay within 32 to 64 µg/mL (≈ 72.3 to 145 µM).
